Experimental data: patent US8658604B2, “Template-fixed beta-hairpin peptidomimetics with protease inhibitory activity” (Polyphor Ltd, priority 2005, dated 2014)
Like-named read-outs stand apart in the source and are kept apart here. Where a SMILES comes first, the peptide text is derived from it.

Experiments:
HELA cells (Acc57) = assay: Cytotoxicity assay (MTT reduction), HELA cells; type: cell-based; conditions: Hela cells
Outline: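 HeLa cells were grown for 24 h, then exposed to peptides at 12.5, 25 and 50 μM in triplicate for 48 h at 37 °C. MTT reduction was read at 595 nm and growth % calculated relative to time-zero wells. LC50 interpolated by linear trend at −50% growth, GI50 at 50%.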

[1] = tested on: human red blood cells (hRBC); assay: Hemolysis
[2] = target: Trypsin, from human pancreas (Homo sapiens, UniProt P07477); assay: Enzymatic assay, trypsin; conditions: at 100 μM
Chymase, from human skin = target: T1, Chymase, from human skin (Homo sapiens, UniProt P23946); assay: Enzymatic assay, chymase
T1 sequence (P23946 22-247): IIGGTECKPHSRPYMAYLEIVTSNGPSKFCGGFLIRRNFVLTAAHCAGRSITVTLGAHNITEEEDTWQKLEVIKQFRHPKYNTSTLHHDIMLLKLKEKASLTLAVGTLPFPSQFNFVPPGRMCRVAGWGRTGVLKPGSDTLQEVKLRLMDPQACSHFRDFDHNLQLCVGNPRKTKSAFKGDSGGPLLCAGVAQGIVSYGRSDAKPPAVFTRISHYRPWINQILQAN

[3] = target: T2, Elastase from human neutrophils (Homo sapiens, UniProt P08246); assay: Enzymatic assay, elastase
T2 sequence (P08246 30-267): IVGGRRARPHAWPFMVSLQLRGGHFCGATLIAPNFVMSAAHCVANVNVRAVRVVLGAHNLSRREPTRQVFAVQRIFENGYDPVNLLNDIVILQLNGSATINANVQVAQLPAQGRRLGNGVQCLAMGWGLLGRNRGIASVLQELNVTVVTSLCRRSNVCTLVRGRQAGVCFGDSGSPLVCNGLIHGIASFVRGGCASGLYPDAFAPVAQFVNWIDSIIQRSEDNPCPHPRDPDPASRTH

[4] = target: Thrombin, from Human Plasma (Homo sapiens, UniProt P00734); assay: Enzymatic assay, thrombin
[5] = tested on: Tryptase, from human lung; assay: Enzymatic assay, tryptase; conditions: at 100 μM
[6] = target: Urokinase from human urine (Homo sapiens, UniProt P00749); assay: Enzymatic assay, urokinase
[7] = target: T3, CathepsinG, from human neutrophils (Homo sapiens, UniProt P08311); assay: Enzymatic assay, cathepsin G
T3 sequence (P08311 21-244): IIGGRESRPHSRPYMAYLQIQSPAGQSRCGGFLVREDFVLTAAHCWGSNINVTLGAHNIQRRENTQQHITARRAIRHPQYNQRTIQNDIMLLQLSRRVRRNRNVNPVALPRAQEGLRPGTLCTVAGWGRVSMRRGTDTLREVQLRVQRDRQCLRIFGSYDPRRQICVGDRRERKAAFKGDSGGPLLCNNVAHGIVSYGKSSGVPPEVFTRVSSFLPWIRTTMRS

[8] = target: Chymotrypsin, from human pancreas (Homo sapiens, UniProt P17538); assay: Enzymatic assay, chymotrypsin; conditions: at 100 μM
[9] = target: Coagulation Factor Xa, from uman plasma (Homo sapiens, UniProt P00742); assay: Enzymatic assay, coagulation factor Xa
Chain of Coagulation Factor Xa, from uman plasma (P00742 235-488 limits assumed): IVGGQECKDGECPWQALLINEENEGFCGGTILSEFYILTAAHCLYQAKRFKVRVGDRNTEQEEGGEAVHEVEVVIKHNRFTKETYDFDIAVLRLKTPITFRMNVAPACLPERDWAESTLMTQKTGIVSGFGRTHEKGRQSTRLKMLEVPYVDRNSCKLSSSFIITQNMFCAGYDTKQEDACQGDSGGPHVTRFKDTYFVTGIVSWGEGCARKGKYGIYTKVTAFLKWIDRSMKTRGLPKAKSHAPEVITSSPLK
Chain of Coagulation Factor Xa, from uman plasma (P00742 41-179 limits assumed): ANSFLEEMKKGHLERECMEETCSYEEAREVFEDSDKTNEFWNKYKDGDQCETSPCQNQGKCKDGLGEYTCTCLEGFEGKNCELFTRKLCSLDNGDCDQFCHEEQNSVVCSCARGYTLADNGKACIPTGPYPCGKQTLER

Chain of Chymotrypsin, from human pancreas (P17538 19-263): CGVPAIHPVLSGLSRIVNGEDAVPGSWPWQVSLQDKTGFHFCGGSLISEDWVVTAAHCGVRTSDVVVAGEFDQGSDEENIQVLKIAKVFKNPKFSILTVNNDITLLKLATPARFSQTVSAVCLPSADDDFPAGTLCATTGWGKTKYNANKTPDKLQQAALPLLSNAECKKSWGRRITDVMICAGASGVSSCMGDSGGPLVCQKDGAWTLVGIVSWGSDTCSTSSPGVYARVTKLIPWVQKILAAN

SMILES	Cytotoxicity LC50/GI50 Hela cells (HELA cells (Acc57))	Hemolysis at 100 μM % [1]	Trypsin at 100 μM % [2]	Chymase at 100 μM % (Chymase, from human skin)	IC50 ([3]; Elastase IC50)	Thrombin at 100 μM % [4]	Tryptase at 100 μM % [5]	Urokinase at 100 μM % [6]	IC50 ([7]; Cathepsin G IC50)	Chymotrypsin at 100 μM % [8]	FXa at 100 μM % [9]	IC50 ([3]; read-out: Elastase IC50)	IC50 ([7]; read-out: Cathepsin G IC50)
CC[C@H](C)[C@@H]1NC(=O)[C@@H]2CCCN2C(=O)[C@@H]2CCCN2C(=O)[C@H](CC(=O)O)NC(=O)[C@H](CO)NC(=O)[C@H](CCCCN)NC(=O)[C@H]([C@@H](C)O)NC(=O)[C@@H]2CSSC[C@H](NC1=O)C(=O)N[C@@H](CC(=O)O)C(=O)N1CCC[C@@H]1C(=O)N1CCC[C@H]1C(=O)N[C@@H](C1CCCCC1)C(=O)N2 [Ex. 39] (HELM PEPTIDE1{[O=C([C@@H](N[*:1])C1CCCCC1)[*:2]].C.T.K.S.D.P.P.I.C.D.[dP].P}$PEPTIDE1,PEPTIDE1,2:R3-10:R3|PEPTIDE1,PEPTIDE1,1:R1-13:R2$$$V2.0)	98 µM	0%	94%	0%	> 100 µM	2%	34%	2%	0.038 µM	7%	0%	–	–
CC[C@H](C)[C@@H]1NC(=O)[C@@H]2CCCN2C(=O)[C@H]2CCCN2C(=O)[C@H](CCCNC(=N)N)NC(=O)[C@@H]2CSSC[C@H](NC1=O)C(=O)N[C@@H]([C@@H](C)O)C(=O)N[C@@H](CCCCN)C(=O)N[C@@H](CO)C(=O)N[C@@H](CC(=O)O)C(=O)N1CCC[C@H]1C(=O)N1CCC[C@H]1C(=O)N[C@@H](CC1CCCCC1)C(=O)N2 [Ex. 58] (HELM PEPTIDE1{I.C.T.K.S.D.P.P.[Cha].C.R.[dP].P}$PEPTIDE1,PEPTIDE1,2:R3-10:R3|PEPTIDE1,PEPTIDE1,1:R1-13:R2$$$V2.0)	100 µM	0%	97%	44.1%	–	28%	–	6.7%	0.0475 µM	0%	25%	> 100 µM	–
CCCC[C@@H]1NC(=O)[C@@H]2CCCN2C(=O)[C@H]2CCCN2C(=O)[C@H]([C@@H](C)O)NC(=O)[C@@H]2CSSC[C@H](NC1=O)C(=O)N[C@@H]([C@@H](C)O)C(=O)N[C@@H](CCCCN)C(=O)N[C@@H](CO)C(=O)N[C@@H](CC(=O)O)C(=O)N1CCC[C@H]1C(=O)N1CCC[C@H]1C(=O)N[C@@H]([C@@H](C)CC)C(=O)N2 [Ex. 42] (HELM PEPTIDE1{[Nle].C.T.K.S.D.P.P.I.C.T.[dP].P}$PEPTIDE1,PEPTIDE1,2:R3-10:R3|PEPTIDE1,PEPTIDE1,1:R1-13:R2$$$V2.0)	87 µM	0%	–	–	–	–	0%	7%	0.046 µM	–	–	–	–
CC[C@H](C)[C@@H]1NC(=O)[C@@H]2CCCN2C(=O)[C@@H]2CCCN2C(=O)[C@H](CC(=O)O)NC(=O)[C@H](CO)NC(=O)[C@H](CCCCN)NC(=O)[C@H]([C@@H](C)O)NC(=O)[C@@H]2CSSC[C@H](NC1=O)C(=O)N[C@@H](Cc1ccc(O)cc1)C(=O)N1CCC[C@@H]1C(=O)N1CCC[C@H]1C(=O)N[C@@H](CC1CCCCC1)C(=O)N2 [Ex. 36] (HELM PEPTIDE1{[Cha].C.T.K.S.D.P.P.I.C.Y.[dP].P}$PEPTIDE1,PEPTIDE1,2:R3-10:R3|PEPTIDE1,PEPTIDE1,1:R1-13:R2$$$V2.0)	83 µM	0%	–	–	–	–	73.3%	0%	0.041 µM	–	–	–	–
CC[C@H](C)[C@@H]1NC(=O)[C@@H]2CCCN2C(=O)[C@H]2CCCN2C(=O)[C@H](CCCNC(=N)N)NC(=O)[C@@H]2CSSC[C@H](NC1=O)C(=O)N[C@@H]([C@@H](C)O)C(=O)N[C@@H](CCCCN)C(=O)N[C@@H](CO)C(=O)N[C@@H](CC(=O)O)C(=O)N1CCC[C@H]1C(=O)N1CCC[C@H]1C(=O)N[C@@H](CC1CCCCC1)C(=O)N2 [Ex. 20] (HELM PEPTIDE1{I.C.T.K.S.D.P.P.[Cha].C.R.[dP].P}$PEPTIDE1,PEPTIDE1,2:R3-10:R3|PEPTIDE1,PEPTIDE1,1:R1-13:R2$$$V2.0)	100 µM	0%	97.0%	44.1%	> 100 µM	28%	–	6.7%	0.048 µM	0%	25%	–	–
CCCC[C@@H]1NC(=O)[C@H]([C@@H](C)O)NC(=O)[C@@H]2CSSC[C@H](NC(=O)[C@H]([C@@H](C)CC)NC(=O)[C@@H]3CCCN3C(=O)[C@@H]3CCCN3C(=O)[C@H](CC(=O)O)NC(=O)[C@H](CO)NC1=O)C(=O)N[C@@H](CCCNC(=N)N)C(=O)N1CCC[C@@H]1C(=O)N1CCC[C@H]1C(=O)N[C@@H]([C@@H](C)CC)C(=O)N2 [Ex. 59] (HELM PEPTIDE1{I.C.T.[Nle].S.D.P.P.I.C.R.[dP].P}$PEPTIDE1,PEPTIDE1,2:R3-10:R3|PEPTIDE1,PEPTIDE1,1:R1-13:R2$$$V2.0)	8 µM	0%	84%	98.8%	–	–	3.8%	5.7%	–	0%	–	> 100 µM	0.055 µM
C[C@@H](O)[C@@H]1NC(=O)[C@@H]2CSSC[C@H](NC(=O)[C@H](Cc3ccc(O)cc3)NC(=O)[C@@H]3CCCN3C(=O)[C@@H]3CCCN3C(=O)[C@H](CC(=O)O)NC(=O)[C@H](CO)NC(=O)[C@H](CCCCN)NC1=O)C(=O)N[C@@H](Cc1ccc(O)cc1)C(=O)N1CCC[C@@H]1C(=O)N1CCC[C@H]1C(=O)N[C@@H](C1CCCCC1)C(=O)N2 [Ex. 65] (HELM PEPTIDE1{[O=C([C@@H](N[*:1])C1CCCCC1)[*:2]].C.T.K.S.D.P.P.Y.C.Y.[dP].P}$PEPTIDE1,PEPTIDE1,2:R3-10:R3|PEPTIDE1,PEPTIDE1,1:R1-13:R2$$$V2.0)	84 µM	0%	–	–	–	–	57%	1%	0.047 µM	–	–	–	–
C[C@@H](O)[C@@H]1NC(=O)[C@@H]2CSSC[C@H](NC(=O)[C@H](CC3CCCCC3)NC(=O)[C@@H]3CCCN3C(=O)[C@@H]3CCCN3C(=O)[C@H](CC(=O)O)NC(=O)[C@H](CO)NC(=O)[C@H](CCCCN)NC1=O)C(=O)N[C@@H](CO)C(=O)N1CCC[C@@H]1C(=O)N1CCC[C@H]1C(=O)N[C@@H](Cc1ccccc1)C(=O)N2 [Ex. 16] (HELM PEPTIDE1{F.C.T.K.S.D.P.P.[Cha].C.S.[dP].P}$PEPTIDE1,PEPTIDE1,2:R3-10:R3|PEPTIDE1,PEPTIDE1,1:R1-13:R2$$$V2.0)	94 µM	0.1%	90.0%	12.9%	> 100 µM	–	–	3.2%	0.066 µM	17.9%	–	–	–
